The text below walks through data of patent publication US20260374794A1, “COMPOUNDS TARGETING MUTANT OF P53” (JACOBIO PHARMACEUTICALS CO., LTD., priority 2022, published 2026).

For one assay, the target named is p53(Y220C)_NUGC-3 (Homo sapiens, UniProt P04637, Y220C). Nature of the assay: Reporter gene assay (NUGC-3_P53_Luc cells). The assay is classed as cell-based. Particulars: 6 hours, 37 °C, luciferase, normalized to Ref-1a 10 μM, EC50 = concentration at 50% Activity, read-out: p53(Y220C)_NUGC-3 EC50. As to the method: NUGC-3_P53_Luc single clonal cell line was established using pGL4.38[luc2P/p53 RE/Hygro] Vector (E365A, promega). NUGC-3_P53_Luc single clonal cells were cultured in 37 °C cell incubator before use. NUGC-3_P53_Luc cells were collected and washed twice with PBS to remove phenol red and then resuspended in medium to a proper concentration. Tested compound dilutions were transferred into 384 well assay plates (PerkinElmer). A desired number of cells was seeded into the assay plate and cultured for 6 hours at 37 °C cell incubator. Britelite plus Luciferase Assay Reagent were added into each well and the luminescence value was recorded on Envision. The percent of activity value of compounds treated wells was normalized between high control and low control. Wells containing cells and Ref-la (10 μM) served as high control, and wells containing cells and same percentage of DMSO served as low control. Activity value (%)=(Luminescence readoutCompound treated−Luminescence readoutLow control)/(Luminescence readoutHigh control−Luminescence readoutLow control)*100%. Then the data were analyzed either by fitting a 4-parameter logistic model or by Excel to calculate EC50 values and the EC50 was the concentration at 50% Activity on the curve.

The next assay addresses T1, p53(Y220C) (Homo sapiens, UniProt P04637, Y220C).
T1 construct: His-p53 Y220C (94-294) protein
Briefly: In vitro DNA binding assay (HTRF), His-p53 Y220C (94-294) with biotinylated p53 consensus DNA. The assay is classed as biochemical. Particulars: HTRF; 27 °C; His-p53 Y220C (94-294) 2.5 nM; biotinylated DNA 10 nM; normalized to 2 μM Ref-1a; EC50 = concentration at 50% Activation; read-out: p53(Y220C) EC50. As to the method: After His-p53 Y220C (94-294) protein was placed with a compound in the present of MAb Anti His-Tb cryptate (Cisbio, Cat. NO. 61HI2TLA) in a 384 well microplate (Greiner) for 15 min at 25 °C, the assay plate was transferred into 27 °C incubator and incubated for 60 min. Biotinalyted p53 consensus DNA (ID: p53-SEQUENCE 2 —F: 5′(biotin)-[…] 3′ —R: 5′ […] 3′) was added into the assay plate in the present of Streptaidin-d2 (Cisbio, Cat. NO. 610SADLF) cryptate (Final concentration: 20 mM HEPES pH=7.4, 75 mM KCl, 1 mM MgCl2, 0.1% (w/v) BSA, 1 mM DTT, 2.5 nM His-P53 Y220C (94-294) protein, 0.33 nM MAb Anti His-Tb cryptate, 2.5 nM Streptaidin-d2 cryptate, 10 nM Biotinalyted DNA) and incubated for another 60 min. Wells containing 2 μM reference compound Ref-1a served as high control, and wells containing same percentage of DMSO served as low control. Homogeneous time-resolved fluorescence (HTRF) signals were read on Tecan Spark multimode microplate reader. HTRF ratios for each individual well were calculated by equation: HTRF ratio=(Signal F665/Signal F620)*1000. The percent of activation of compounds treated wells were normalized between high control and low control (% Activation=(HTRF ratiocompound treated−HTRF ratiolow control)/(HTRF ratiohigh control−HTRF ratiolow control)*100%). Then the data were analyzed either by fitting a 4-parameter logistic model or by Excel to calculate EC50 values. And the EC50 was the concentration at 50% Activation on the curve.
(In general: Time-resolved FRET reads energy transfer from a long-lived donor to a nearby acceptor.)

For a further assay, the system named is NUGC-3 (P53 Y220C). Briefly: Cell viability assay (CellTiter-Glo). Format: cell-based. Particulars: Homo sapiens, 144 h, NUGC-3 cells, 6 days, 37 °C. As to the method:
Cells were collected and counted. A desired number of cells was seeded into 96-well microplate and cultured in 37 °C cell incubator overnight. Compounds dissolved in cell culture medium were added into cell plate and cultured for 6 days. After balancing CellTiter-Glo reagent and cells at room temperature for 30 min, equal volume of CellTiter-Glo reagents was added to assay plate and shaken for 2 min for cell lysis. The cells were balanced at room temperature for 10 minutes and Luminescence signal was read using Envision. The percent of cell viability for compounds treated wells were normalized between High control and low control. Wells containing cell culture medium and same percentage DMSO served as Low control. Wells containing cells and same percentage DMSO served as High control. Cell viability (%)=(Luminescence readoutCompound treated−Luminescence readoutLow control)/(Luminescence readoutHigh control−Luminescence readoutLow control)*100%. Then the data were analyzed either by fitting a 4-parameter logistic model or by Excel to calculate IC50 values. And the IC50 was the concentration at […] Cell viability on the curve.
In general terms: ATP-based viability assays read luminescence as a measure of living cells.

`COc1cc(P(C)(C)=O)ccc1NCC#Cc1sc2c(N[C@@H]3CC[N@@+](C)([O-])C[C@@H]3F)cccc2c1CC(F)(F)F` (single isomer, unassigned) [Example 7]: the EC50 on p53(Y220C)_NUGC-3 was 3940 nM; on p53(Y220C), 81 nM.

Regarding `COc1cc([S@](C)(=N)=O)ccc1NCC#Cc1sc2c(N[C@@H]3CC[N@+](C)([O-])C[C@@H]3F)cccc2c1CC(F)(F)F` (single isomer, unassigned) [Example 8], the EC50 at p53(Y220C)_NUGC-3 turned out to be 7230 nM; at p53(Y220C) it was 38 nM.

With `COc1cc([S@](C)(=N)=O)ccc1NCC#Cc1sc2c(N[C@@H]3CC[N@@+](C)([O-])C[C@@H]3F)cccc2c1CC(F)(F)F` (single isomer, unassigned) [Example 9], the EC50 at p53(Y220C)_NUGC-3 stood at 1900 nM; at p53(Y220C), 62 nM.

As to `COc1cc(P(C)(C)=O)ccc1NCC#Cc1sc2c(N[C@@H]3CC[N@+](C)([O-])C[C@@H]3F)cccc2c1CC(F)(F)F` (single isomer, unassigned) [Example 10], the EC50 came out at 11100 nM on p53(Y220C)_NUGC-3 and 53 nM on p53(Y220C).

In the case of `CN1CC[C@@H](Nc2cccc3c(CC(F)(F)F)c(C#CCNc4ccc(P(C)(C)=O)c5ccoc45)sc23)[C@@H](F)C1` [Example 2, (7-((3-(7-(((3S,4R)-3-fluoro-1-methylpiperidin-4-yl)amino)-3-(2,2,2-trifluoroethyl)benzo[b]thiophen-2-yl)prop-2-yn-1-yl)amino)benzofuran-4-yl)dimethylphosphine oxide], the EC50 on p53(Y220C)_NUGC-3 was determined as 196 nM.

Take `CN1CC[C@@H](Nc2cccc3c(CC(F)(F)F)c(C#CCNc4ccc(P(C)(C)=O)cc4-c4cc[nH]n4)sc23)[C@@H](F)C1` [Example 3, (4-((3-(7-(((3S,4R)-3-fluoro-1-methylpiperidin-4-yl)amino)-3-(2,2,2-trifluoroethyl)benzo[b]thiophen-2-yl)prop-2-yn-1-yl)amino)-3-(1H-pyrazol-3-yl)phenyl)dimethylphosphine oxide]: the EC50 on p53(Y220C)_NUGC-3 was found to be 55 nM. The IC50 (as a rule, the concentration needed to halve the response being measured) in the assay on NUGC-3 (P53 Y220C) came out at 1400 nM.

In the case of `COc1cc(P(C)(C)=O)ccc1NCC#Cc1sc2c(NC3CN(C)CC3F)cccc2c1CC(F)(F)F` (stereo not drawn) [Example 13, (4-((3-(7-((4-fluoro-1-methylpyrrolidin-3-yl)amino)-3-(2,2,2-trifluoroethyl)benzo[b]thiophen-2-yl)prop-2-yn-1-yl)amino)-3-methoxyphenyl)dimethylphosphine oxide], the EC50 on p53(Y220C)_NUGC-3 turned out to be 138 nM; on p53(Y220C), 104 nM. Also, inhibition in the assay on NUGC-3 (P53 Y220C) was half-maximal at 1390 nM (IC50).

Regarding `COc1cc(S(=N)(=O)C2CCOCC2)ccc1NCC#Cc1sc2c(NC3CCN(C)CC3F)cccc2c1CC(F)(F)F` [Example 24, (S)-(4-((3-(7-(((3S,4R)-3-fluoro-1-methylpiperidin-4-yl)amino)-3-(2,2,2-trifluoroethyl)benzo[b]thiophen-2-yl)prop-2-yn-1-yl)amino)-3-methoxyphenyl)(imino)(tetrahydro-2H-pyran-4-yl)-16-sulfanone], the EC50 on p53(Y220C)_NUGC-3 was 119 nM; at p53(Y220C) it was 68 nM. In the assay on NUGC-3 (P53 Y220C), this molecule gave an IC50 of 900 nM.

As for `COc1cc([S@](=N)(=O)C(C)C)ccc1NCC#Cc1sc2c(N[C@@H]3CCN(C)C[C@@H]3F)cccc2c1CC(F)(F)F` [Example 26, (R)-(4-((3-(7-(((3S,4R)-3-fluoro-1-methylpiperidin-4-yl)amino)-3-(2,2,2-trifluoroethyl)benzo[b]thiophen-2-yl)prop-2-yn-1-yl)amino)-3-methoxyphenyl)(imino)(isopropyl)-16-sulfanone], the values for the EC50 at p53(Y220C)_NUGC-3 and on p53(Y220C) were 208 nM and 70 nM, respectively. Moreover, the IC50 with NUGC-3 (P53 Y220C) stood at 1840 nM.

For the molecule `COc1cc(S(C)(=O)=O)ccc1NCC#Cc1cc2c(N[C@@H]3CCN(C)C[C@@H]3F)cccc2n1CC(F)(F)F` [Ref-1a, reference compound], on p53(Y220C)_NUGC-3, the EC50 was 50 nM.
